Columns and labels:
MT4 [1] = test: Compound was tested for the inhibition of cytopathic effect of HIV-1 N119 in MT-4 cells; format: functional, Homo sapiens
MT4 [2] = test: Compound was tested for the inhibition of cytopathic effect of HIV-1 6S in MT-4 cells; format: functional, Homo sapiens
CEM-SS [3] = test: Compound was tested for the prevention of cytopathic effect of HIV-1 RF in CEM-SS cells; format: functional, cell-based; settings: Homo sapiens
CEM-SS [4] = test: Compound was tested for cytotoxicity in uninfected CEM-SS cells; format: functional; settings: Homo sapiens

| SMILES | Activity (MT4 [1]) [µM] | Activity (MT4 [2]) [µM] | EC50 (CEM-SS [3]) [µM] | CC50 (CEM-SS [4]) [µM] |
| --- | --- | --- | --- | --- |
| CCCCCC=C(c1cc(Br)c(OC)c(C(=O)OC)c1)c1cc(Br)c(OC)c(C(=O)OC)c1 | 151 | 0.56 | – | – |
| COC(=O)CCCC=C(c1cc(Cl)c(OC)c(C(=O)OC)c1)c1cc(Cl)c(OC)c(C(=O)OC)c1 | – | – | 0.013 | 31.6 |

From ChEMBL document CHEMBL1130621, “Synthesis of a non-nucleoside reverse transcriptase inhibitor in the alkenyldiarylmethane (ADAM) series with optimized potency and therapeutic index” (Bioorg Med Chem Lett, 1998)
